In patent US20260209152A1, “Substituted Hydroxystilbene Compounds and Derivatives, Synthesis and Uses Thereof” (Kynan Duke IP, LLC, priority 2019, published 2026):
Like-named read-outs stand apart in the source and are kept apart here.

Key:
Format in all cases: cell-based, human
Pancreatic MIA PaCa-2 = assay: CellTiter Glo cell viability assay; conditions: read-out: IC50
Protocol: (§1) 1.7*10^3 cells/well were seeded in quadruplicates in 96-well plate after plating. Drugs were added at 5 μM and 2-fold dilutions over 18 concentrations (0.000038146-5 M concentration range) to generate a dose-response curve. Cell growth was assessed on day 1, 3 and 5 after drug treatments using the CellTiter Glo Luminescence Cell Viability Assay (Promega) according to manufacturer's protocol. Thermo Scientific Varioskan LUX Multimode Microplate instrument was used for plate reading. Data are expressed as mean luminescence (arbitrary units) ±S.D.
(§2) Cell Viability Assays were employed to determine the concentration of Compound 1 (KYN-001) and analogues where the response is reduced by half. For each treatment of cancer cells, 1, 2, 5, 10 and 20 μM solutions of compounds were applied. GraphPad Prism 7 software was used to fit dose response curves. Relative Luminescence Units were plotted against the log values of the doses used and the nonlinear regression model was used for data analysis.
(§3) The protocol for cell proliferation was optimized for Compound 8 (KYN-119) to enable a more accurate assessment of its low IC50 value. In this protocol, 18 dosages (2 fold dilutions ranging from 0.000038146 to 5 μM) were applied to cells seeded in 96-well plates, and Luminescence was measured after 1, 3 and 5 days upon treatments.
Day 3 upon treatment of MIA PaCa_2 pancreatic cancer cells, 24 h after plating (11 dilutions), as assessed by CellTiter Glow Assay.

Kidney A-498 = assay: CellTiter Glo cell viability assay; conditions: read-out: IC50
Protocol: as §1, with “Drugs were added at 5 μM and 2-fold dilutions over 18 concentrations (0.000038146-5 M concentration range) to generate a dose-response curve.” left out
as §2, with “For each treatment of cancer cells, 1, 2, 5, 10 and 20 μM solutions of compounds were applied.” left out
The protocol for cell proliferation was optimized for Compound 8 (KYN-119) to enable a more accurate assessment of its low IC50 value. […]

[1] = tested on: Cancer cells including pancreatic, bladder, kidney, colon, breast, lung, liver and osteosarcomas; assay: CellTiter Glo cell viability assay, panel of cancer cell lines; conditions: SAR discussion based on IC50 values in Tables 1 to 5; compared with 1 [KYN-001]
Protocol: Compounds 1 to 15 were evaluated and their effect on cancer growth examined in cell viability assays on multiple cancer types (Tables 1 to 5). Cancer cells including pancreatic, bladder, kidney, colon, breast, lung, liver and osteosarcomas obtained from ATCC (American Type Culture Collection) were authenticated before use by Short Tandem Repeat genomic analysis (Reid Y, Storts D, Riss T and Minor L. Authentication of Human Cell Lines by STR DNA Profiling Analysis. 2013 May 1. In: Markossian S, Sittampalam G S, Grossman A, et al., editors. Assay Guidance Manual. Bethesda (MD): Eli Lilly & Company and the National Center for Advancing Translational Sciences; 2004.). Experimental protocol for each cancer cell line was verified and optimized according to literature reports before use (Tables 1 to 3).
as §1, §2, §3

Bladder RT-112 = assay: CellTiter Glo cell viability assay; conditions: Homo sapiens, RT-112, 72 h, Table 4: 3 Days of treatment; 18 2-fold dilutions 5-0.00003 μM; Average (1, 8) or single Exp A-D; read-out: IC50
Protocol: as §1, §2, §3

[2] = Homo sapiens, MIA PaCa-2, 72 h, Table 4: 3 Days of treatment, 18 2-fold dilutions 5-0.00003 μM, Average (1, 8) or single Exp A-D
[3] = Homo sapiens, MIA PaCa-2, Table 5A: 11 dilutions 3-0.00001 μM, single experiments Exp E-K
[4] = Table 5A: 11 dilutions 3-0.00001 μM, single experiments Exp E-K
[5] = Homo sapiens, A498, 72 h, Table 4: 3 Days of treatment, 18 2-fold dilutions 5-0.00003 μM, Average (1, 8) or single Exp A-D
[6] = Homo sapiens, A498, Table 5A: 11 dilutions 3-0.00001 μM, single experiments Exp E-K
[7] = Table 5A: 11 dilutions 3-0.00001 μM, single experiments Exp E-K, listed as KYN-139
[8] = Table 5A: 11 dilutions 3-0.00001 μM, single experiments Exp E-K, listed as KYN-140

IC50 (Pancreatic MIA PaCa-2; [3]) [nM] | SMILES | IC50 (Kidney A-498; [6]) [nM] | Cancer cell viability inhibition, statement in words [1] | also measured
100 to 1000 | C/C=C/Cc1c(/C=C/c2ccc(O)c(OC)c2)cc(O)cc1OC [Compound 2, 4-((E)-but-2-en-1-yl)-3-((E)-4-hydroxy-3-methoxystyryl)-5-methoxyphenol] | 100 to 1000 | biological activity comparable with 1 | IC50 (Pancreatic MIA PaCa-2; [2]): 119 nM; IC50 (Pancreatic MIA PaCa-2; [4]): 135 nM; IC50 (Kidney A-498; [5]): 117 nM; IC50 (Kidney A-498; [4]): 132 nM
 | C/C=C\Cc1c(/C=C/c2ccc(O)c(OC)c2)cc(O)cc1OC [Compound 3, 4-((Z)-but-2-en-1-yl)-3-((E)-4-hydroxy-3-methoxystyryl)-5-methoxyphenol] |  |  | IC50 (Pancreatic MIA PaCa-2; [2]): 381 nM; IC50 (Pancreatic MIA PaCa-2; [7]): 520 nM; IC50 (Kidney A-498; [5]): 361 nM; IC50 (Kidney A-498; [7]): 545 nM
 | C=CC(C)c1c(/C=C/c2ccc(O)c(OC)c2)cc(O)cc1OC (stereo not shown) [Compound 4, (E)-4-(but-3-en-2-yl)-3-(4-hydroxy-3-methoxystyryl)-5-methoxyphenol] |  |  | IC50 (Pancreatic MIA PaCa-2; [2]): 755 nM; IC50 (Pancreatic MIA PaCa-2; [8]): 746 nM; IC50 (Kidney A-498; [5]): 667 nM; IC50 (Kidney A-498; [8]): 754 nM
 | C/C=C/Cc1c(/C=C/c2ccc(O)c(OC)c2)cc(O)cc1OCC [Compound 5, 4-((E)-But-2-en-1-yl)-3-ethoxy-5-((E)-4-hydroxy-3-methoxystyryl)phenol] | 1190 |  | IC50 (Pancreatic MIA PaCa-2; Table 5A: 11 dilutions 3-0.00001 μM, single experiments Exp E-K, listed as KYN-153): 27.5 nM
1280 | C=CCc1c(/C=C/c2ccc(O)c(OC)c2)cc(O)cc1OC [Compound 6, (E)-4-allyl-3-(4-hydroxy-3-methoxystyryl)-5-methoxyphenol] | 1090 |  | IC50 (Kidney A-498; [5]): 1590 nM; IC50 (Bladder RT-112): 862 nM
 | COc1cc(/C=C/c2cc(O)cc(OC)c2Cc2ccccc2)ccc1O [Compound 7, (E)-4-benzyl-3-(4-hydroxy-3-methoxystyryl)-5-methoxyphenol] | 100 to 1000 |  | IC50 (Kidney A-498; [5]): 288 nM; IC50 (Kidney A-498; [4]): 199 nM; IC50 (Bladder RT-112): 170 nM
> 3000 | COc1cc(O)cc(/C=C/c2ccc(O)c(N(C)C)c2)c1CC=C(C)C [Compound 16, (E)-3-(3-(Dimethylamino)-4-hydroxystyryl)-5-methoxy-4-(3-methylbut-2-en-1-yl)phenol] | > 3000 | inactive or weakly active | 
~1000 | COc1cc(/C=C/c2cc(O)cc(OC)c2CC=C(C)C)cc(O)c1O [Compound 18, (E)-5-(5-Hydroxy-3-methoxy-2-(3-methylbut-2-en-1-yl)styryl)-3-methoxybenzene-1,2-diol] | ~3000 |  | 
921 | COc1cc(O)cc(/C=C/c2cc(O)cc(OC)c2CC=C(C)C)c1 [Compound 19, (E)-3-(3-Hydroxy-5-methoxystyryl)-5-methoxy-4-(3-methylbut-2-en-1-yl)phenol] | > 3000 | strongly weakened activity | 
> 3000 | COc1cc(/C=C/c2cc(O)cc(OC)c2CC=C(C)C)ccc1C(=O)O [Compound 21, (E)-4-(5-Hydroxy-3-methoxy-2-(3-methylbut-2-en-1-yl)styryl)-2-methoxybenzoic acid] | > 3000 |  | IC50 (Kidney A-498; [4]): ~3000 nM
 | COc1cc(/C=C/c2cc(O)cc(OC)c2CC=C(C)C)ccc1NS(C)(=O)=O [Compound 25, (E)-N-(4-(5-hydroxy-3-methoxy-2-(3-methylbut-2-en-1-yl)styryl)-2-methoxyphenyl)methanesulfonamide] | 15000 |  | IC50 (Pancreatic MIA PaCa-2; [2]): 7740 nM
 | COc1cc(/C=C\c2cc(O)cc(OC)c2CC=C(C)C)ccc1NS(C)(=O)=O [Compound 26, (Z)—N-(4-(5-hydroxy-3-methoxy-2-(3-methylbut-2-en-1-yl)styryl)-2-methoxyphenyl)methanesulfonamide] |  | Total loss of the anti-proliferative effect | 
 | CCOc1cc(O)cc(/C=C/c2ccc(NC(=O)CN)c(OC)c2)c1CC=C(C)C [Compound 32, (E)-2-Amino-N-(4-(3-ethoxy-5-hydroxy-2-(3-methylbut-2-en-1-yl)styryl)-2-methoxyphenyl)acetamide] | 1840 |  | 
100 to 1000 | CCOc1cc(O)cc(/C=C/c2ccc(NCC(=O)OC)c(OC)c2)c1CC=C(C)C [Compound 34, Methyl (E)-(4-(3-ethoxy-5-hydroxy-2-(3-methylbut-2-en-1-yl)styryl)-2-methoxyphenyl)glycinate] |  |  | IC50 (Pancreatic MIA PaCa-2; [4]): 173 nM
> 3000 | CCOc1cc(O)cc(/C=C/c2ccc(NC(=O)CCC(=O)O)c(OC)c2)c1CC=C(C)C [Compound 37, (E)-4-((4-(3-Ethoxy-5-hydroxy-2-(3-methylbut-2-en-1-yl)styryl)-2-methoxyphenyl)amino)-4-oxobutanoic acid] |  |  | 
> 3000 | [H]/N=C(\N)Nc1ccc(C=Cc2cc(O)cc(OCC)c2CC=C(C)C)cc1OC [Compound 38, (E)-1-(4-(3-ethoxy-5-hydroxy-2-(3-methylbut-2-en-1-yl)styryl)-2-methoxyphenyl)guanidine] | 100 to 1000 |  | IC50 (Kidney A-498; [4]): ~100 nM
> 3000 | CCOc1cc(O)cc(/C=C/c2ccc(NC=O)c(O)c2)c1CC=C(C)C [Compound 40, (E)-N-(4-(3-Ethoxy-5-hydroxy-2-(3-methylbut-2-en-1-yl)styryl)-2-hydroxyphenyl)formamide] | 2930 | very strongly weakened activity | 
> 3000 | CCOc1cc(O)cc(/C=C/c2ccc(O)c(NC=O)c2)c1CC=C(C)C [Compound 41, (E)-N-(5-(3-Ethoxy-5-hydroxy-2-(3-methylbut-2-en-1-yl)styryl)-2-hydroxyphenyl)formamide] |  | inactive or weakly active | 
 | COc1cc(/C=C/c2cc([N+](=O)[O-])cc(OC)c2CC=C(C)C)ccc1O [Compound 42, (E)-2-Methoxy-4-(3-methoxy-2-(3-methylbut-2-en-1-yl)-5-nitrostyryl)phenol] | ~3000 | almost complete loss of anticancer activity | 
~3000 | COc1cc(/C=C/c2cc(N)cc(OC)c2CC=C(C)C)ccc1O [Compound 43, (E)-4-(5-Amino-3-methoxy-2-(3-methylbut-2-en-1-yl)styryl)-2-methoxyphenol] | ~3000 | No significant enhancement of activity | 
1160 | COc1cc(/C=C/c2cc(NC=O)cc(OC)c2CC=C(C)C)ccc1O [Compound 44, (E)-N-(3-(4-Hydroxy-3-methoxystyryl)-5-methoxy-4-(3-methylbut-2-en-1-yl)phenyl)formamide] | 2040 | No significant enhancement of activity | 
 | COc1cc(/C=C/c2cc(O)cc(C(F)(F)F)c2CC=C(C)C)ccc1O [Compound 46, (E)-3-(4-hydroxy-3-methoxystyryl)-4-(3-methylbut-2-en-1-yl)-5-(trifluoromethyl)phenol] |  | complete loss of biological activity | 
 | CCOc1cc(O)cc(/C=C/c2ccc3[nH]c(=O)oc3c2)c1CC=C(C)C [Compound 52, (E)-6-(3-Ethoxy-5-hydroxy-2-(3-methylbut-2-en-1-yl)styryl)benzo[d]oxazol-2(3H)-one] |  | no significant activity | 
